IC50 data for 47 compounds are collected here from patent US9290511B2, “Thieno-pyrimidines, useful as potassium channel inhibitors” (XENTION LIMITED, priority 2011, dated 2016).

A value given as a limit tells only on which side of the number the result lay.

In general, IC50 refers to the concentration that inhibits the measured activity by half. Read a high IC50 as weaker potency.

The assay deals with T1, Kir3.1/3.4 (Rattus norvegicus, UniProt P48548+P63251).
T1 construct: expressed in transfected cells
T1 sequence (P63251 1-501): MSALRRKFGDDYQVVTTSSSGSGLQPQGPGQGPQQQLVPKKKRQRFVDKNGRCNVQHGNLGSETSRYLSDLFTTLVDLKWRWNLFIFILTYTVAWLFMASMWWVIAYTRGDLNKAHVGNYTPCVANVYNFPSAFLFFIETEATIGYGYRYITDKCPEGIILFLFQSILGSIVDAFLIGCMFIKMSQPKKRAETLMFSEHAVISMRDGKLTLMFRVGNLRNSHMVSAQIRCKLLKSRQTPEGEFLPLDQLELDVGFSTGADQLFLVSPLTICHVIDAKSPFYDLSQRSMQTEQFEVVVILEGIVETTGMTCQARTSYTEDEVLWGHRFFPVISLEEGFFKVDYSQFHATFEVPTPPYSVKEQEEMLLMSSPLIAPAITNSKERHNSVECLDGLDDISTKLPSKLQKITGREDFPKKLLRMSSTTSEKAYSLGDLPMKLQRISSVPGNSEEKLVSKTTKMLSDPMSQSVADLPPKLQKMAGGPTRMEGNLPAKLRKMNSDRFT
T1 sequence (P48548 1-419): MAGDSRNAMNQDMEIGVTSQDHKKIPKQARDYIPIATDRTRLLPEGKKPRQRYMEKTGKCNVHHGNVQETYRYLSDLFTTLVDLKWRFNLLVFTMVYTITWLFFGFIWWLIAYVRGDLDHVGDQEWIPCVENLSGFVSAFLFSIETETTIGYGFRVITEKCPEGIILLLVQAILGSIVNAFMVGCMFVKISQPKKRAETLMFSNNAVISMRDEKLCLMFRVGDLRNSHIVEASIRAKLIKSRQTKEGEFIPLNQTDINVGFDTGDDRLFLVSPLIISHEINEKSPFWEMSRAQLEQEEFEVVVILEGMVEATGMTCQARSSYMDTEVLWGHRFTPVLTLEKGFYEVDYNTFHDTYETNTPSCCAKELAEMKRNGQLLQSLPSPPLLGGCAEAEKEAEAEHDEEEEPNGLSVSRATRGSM
The experiment in a line: Kir3.1/3.4 Electrophysiology Method (manual whole-cell patch clamp). In kind it is cell-based. As to conditions: Electrophysiology Method (TABLE 1). Summed up:
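Percent inhibition is relative to the pre-drug current, both leak-subtracted using a potassium-free bather, taken as the mean current at −140 mV. The protocol was a step to +60 mV, a ramp to −140 mV, then a return to −60 mV holding, every 10 s. Cells were rat Kir3.1/3.4-transfected HEK293 recorded by whole-cell patch clamp.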
(The patch-clamp technique gives a direct electrical read-out from membranes.)

`CN(C)C1CCCN(CC2CCN(c3ncnc4scc(-c5ccc(F)cc5)c34)CC2)C1` (centres unmarked) [Example 79, 1-[[1-[5-(4-fluorophenyl)thieno[2,3-d]pyrimidin-4-yl]-4-piperidyl]methyl]-N,N-dimethyl-piperidin-3-amine]: the IC50 was < 0.5 µM.

As for `CN(CC(=O)N1CCCC1)CC1CCN(c2ncnc3scc(-c4ccccc4)c23)CC1` [Example 93, 2-[methyl-[[1-(5-phenylthieno[2,3-d]pyrimidin-4-yl)-4-piperidyl]methyl]amino]-1-pyrrolidin-1-yl-ethanone], the IC50 is 0.5 to 3 µM.

Take `FC(F)(F)c1nc(N2C3CCC2CC(NC2CCC2)C3)c2c(-c3ccccc3)csc2n1` (centres unmarked) [Example 359]: the IC50 is < 0.5 µM.

For `OC1CCN(CC2CCN(c3ncnc4scc(C5CCCCC5)c34)CC2)C1` (centres unmarked) [Example 200], the IC50 was < 0.5 µM.

Regarding `O[C@H]1CCN(CC2CCN(c3ncnc4scc(-c5ccccc5)c34)CC2)C1` [Example 190], the concentration for half-maximal inhibition (IC50) is < 0.5 µM.

For the compound `c1ccc(-c2csc3ncnc(N4CCC(CNCc5ccccn5)CC4)c23)cc1` [Example 66, N-[[1-(5-phenylthieno[2,3-d]pyrimidin-4-yl)-4-piperidyl]methyl]-1-(2-pyridyl)methanamine], the IC50 was < 0.5 µM.

In the case of `c1ccc(-c2csc3ncnc(N4CCCC(OCCN5CCCC5)C4)c23)cc1` (centres unmarked) [Example 272], the IC50 was < 0.5 µM.

`FC(F)(F)Oc1ccccc1-c1csc2ncnc(N3C4CCC3CC(NC3CCC3)C4)c12` (centres unmarked) [Example 341]: the 50% inhibitory concentration (IC50) was < 0.5 µM.

In the case of `O=C1NCCN1c1sc2ncnc(N3CCC(COCCN4CCCC4)CC3)c2c1-c1ccccc1` [Example 368], the IC50 was < 0.5 µM.

Consider `Cc1ccccc1-c1csc2ncnc(N3C4CCC3CC(NC3CCC3)C4)c12` (centres unmarked) [Example 344], for which the IC50 was < 0.5 µM.

Regarding `CN(C)[C@@H]1CCCN(CC2CCN(c3ncnc4scc(-c5ccccc5)c34)CC2)C1` [Example 216], the IC50 was < 0.5 µM.

Regarding `CN1CCC(NCC2CCN(c3ncnc4scc(-c5ccccc5)c34)CC2)CC1` [Example 97, 1-methyl-N-[[1-(5-phenylthieno[2,3-d]pyrimidin-4-yl)-4-piperidyl]methyl]piperidin-4-amine], the IC50 was < 0.5 µM.

`CC(=O)NC1CCN(c2nc(N3CCC(COCCN4CCCC4)CC3)c3c(-c4ccccc4)csc3n2)C1` (centres unmarked) [Example 257]: the half-maximal inhibitory concentration (IC50) is < 0.5 µM.

Regarding “N-(2-pyrrolidin-1-ylethyl)thieno[2,3-d]pyrimidin-2-amine [Example 127]”, the 50% inhibitory concentration (IC50) was < 0.5 µM.

Regarding `CN(C)CCCN(C)CC1CCN(c2ncnc3scc(-c4ccccc4)c23)CC1` [Example 72, N,N,N′-trimethyl-N′-[[1-(5-phenylthieno[2,3-d]pyrimidin-4-yl)-4-piperidyl]methyl]propane-1,3-diamine], the IC50 is < 0.5 µM.

As for `CN(C)C(=O)c1sc2ncnc(N3C4CCC3CC(COCCN3CCCC3)C4)c2c1-c1ccccc1` (centres unmarked) [Example 356], the IC50 was < 0.5 µM.

In turn, `OC1CCN(c2nc(NCCN3CCCC3)nc3scc(-c4ccccc4)c23)C1` (centres unmarked) [Example 189] returned a 50% inhibitory concentration (IC50) of 0.5 to 3 µM.

For `c1ccc(-c2csc3ncnc(N4CCC(CNCC5CC5)CC4)c23)cc1` [Example 49, 1-cyclopropyl-N-[[1-(5-phenylthieno[2,3-d]pyrimidin-4-yl)-4-piperidyl]methyl]methanamine], the IC50 was < 0.5 µM.

`Fc1ccc(-c2csc3ncnc(N4CC5C(COCCN6CC7CC6CO7)C5C4)c23)cc1` (centres unmarked) [Example 48, 5-[2-[[3-[5-(4-fluorophenyl)thieno[2,3-d]pyrimidin-4-yl]-3-azabicyclo[3.1.0]hexan-6-yl]methoxy]ethyl]-2-oxa-5-azabicyclo[2.2.1]heptane]: the IC50 is < 0.5 µM.

In turn, `O=C(NCCN1CCCC1)C1CCN(c2ncnc3scc(-c4ccccc4)c23)CC1` [Example 267] yielded an IC50 of 0.5 to 3 µM.

Turning to `CN(C)c1nc(N2CCC(COCCN3CCCC3)CC2)nc2scc(-c3ccccc3)c12` [Example 275], the IC50 is < 0.5 µM.

For the compound `CN1CCCC1CCOCC1CCN(c2ncnc3sccc23)CC1` (centres unmarked) [Example 3, 4-[4-[2-(1-methylpyrrolidin-2-yl)ethoxymethyl]-1-piperidyl]thieno[2,3-d]pyrimidine], the concentration for half-maximal inhibition (IC50) lay within 3 to 10 µM.

For the compound `NC(=O)C1CCN(c2nc(N3CCC(COCCN4CCCC4)CC3)c3c(-c4ccccc4)csc3n2)C1` (centres unmarked) [Example 256], the 50% inhibitory concentration (IC50) was < 0.5 µM.

On to `O=C(CNCC1CCN(c2ncnc3scc(-c4ccccc4)c23)CC1)N1CCCC1` [Example 105], for which the IC50 is < 0.5 µM.

`CN1CCCC1CCNCC1CN(c2ncnc3scc(-c4ccccc4)c23)C1` (centres unmarked) [Example 219]: the IC50 was < 0.5 µM.

Regarding `c1cc(-c2csc3ncnc(N4CCC(COCCN5CCCC5)CC4)c23)ccn1` [Example 311], the IC50 was 0.5 to 3 µM.

Compound `CN(C)C(=O)c1ccccc1-c1csc2ncnc(N3CCC(COCCN4CCCC4)CC3)c12` [Example 330] came in with a 50% inhibitory concentration (IC50) of 3 to 10 µM.

In turn, `NC(=O)C1CCN(c2nc(N3C4CCC3CC(CO)C4)c3c(-c4ccccc4)csc3n2)C1` (centres unmarked) [Example 310] yielded an IC50 of 0.5 to 3 µM.

In the case of `NC(=O)C1CCN(c2nc(N3CC4CC3CO4)c3c(-c4ccccc4)csc3n2)C1` (centres unmarked) [Example 309], the concentration for half-maximal inhibition (IC50) is 3 to 10 µM.

Consider `Fc1ccc(-c2csc3ncnc(N4CC5C(COCCN6CC[C@H](F)C6)C5C4)c23)cc1` (stereo partly drawn) [Example 47, 5-(4-fluorophenyl)-4-[6-[2-[(3S)-3-fluoropyrrolidin-1-yl]ethoxymethyl]-3-azabicyclo[3.1.0]hexan-3-yl]thieno[2,3-d]pyrimidine], for which the concentration for half-maximal inhibition (IC50) is < 0.5 µM.

As to `CN(C)C1CCCN(CC2CCN(c3nc(NCCN4CCCC4)nc4scc(-c5ccccc5)c34)CC2)C1` (centres unmarked) [Example 117], the IC50 was < 0.5 µM.

On to `CCc1nc(N2CCC(N(C)C)CC2)c2c(-c3ccccc3)csc2n1` [Example 370], for which the IC50 was < 0.5 µM.

On to `COCCNCC1CCN(c2nc(NCCN3CCCC3)nc3scc(-c4ccccc4)c23)CC1` [Example 109], for which the concentration for half-maximal inhibition (IC50) lay within 0.5 to 3 µM.

As for `CN(C)C(=O)c1sc2ncnc(N3C4CCC3CC(N3CCCC3)C4)c2c1-c1ccccc1` (centres unmarked) [Example 353, N,N-dimethyl-5-phenyl-4-(3-pyrrolidin-1-yl-8-azabicyclo[3.2.1]octan-8-yl)thieno[2,3-d]pyrimidine-6-carboxamide], the IC50 is < 0.5 µM.

Consider `CC(=O)N(C)C1CCN(CC2CCN(c3ncnc4scc(-c5ccccc5)c34)CC2)C1` (centres unmarked) [Example 248], for which the IC50 is < 0.5 µM.

Consider `NC(=O)C1CCN(c2nc(N3C4CCC3CC(NC3CCC3)C4)c3c(-c4ccccc4)csc3n2)C1` (centres unmarked) [Example 337, 1-[4-[3-(cyclobutylamino)-8-azabicyclo[3.2.1]octan-8-yl]-5-phenyl-thieno[2,3-d]pyrimidin-2-yl]pyrrolidine-3-carboxamide], for which the IC50 lay within 0.5 to 3 µM.

Consider `CN(C)C(=O)c1sc2ncnc(N3C4CCC3CC(N(C)C3CCC3)C4)c2c1-c1ccccc1` (centres unmarked) [Example 347], for which the half-inhibitory concentration (IC50) was < 0.5 µM.

Compound `CN(C)S(=O)(=O)c1ccc(-c2csc3ncnc(N4CCC(COCCN5CCCC5)CC4)c23)cc1` [Example 44, N,N-dimethyl-4-[4-[4-(2-pyrrolidin-1-ylethoxymethyl)-1-piperidyl]thieno[2,3-d]pyrimidin-5-yl]benzenesulfonamide] yielded an IC50 of 0.5 to 3 µM.

As to `OCCNc1nc(N2CCC(CCO)CC2)c2c(-c3ccc(F)cc3)csc2n1` [Example 171], the IC50 lay in the range of 0.5 to 3 µM.

For `CN(C)C1CCCN(CC2CCN(c3nc(N4CCC(C(N)=O)C4)nc4scc(-c5ccccc5)c34)CC2)C1` (centres unmarked) [Example 123], the IC50 was < 0.5 µM.

Consider `CNC(=O)c1sc2ncnc(N3CCC(CN(C)C4CCN(C)C4)CC3)c2c1-c1ccccc1` (centres unmarked) [Example 131], for which the IC50 fell in the range of 3 to 10 µM.

With `Cc1sc2ncnc(N3CCC(CN4CCCC(N(C)C)C4)CC3)c2c1C` (centres unmarked) [Example 234], the half-maximal inhibitory concentration (IC50) was < 0.5 µM.

`OC1CCCN(CC2CCN(c3ncnc4scc(-c5ccccc5)c34)CC2)C1` (centres unmarked) [Example 55, 1-[[1-(5-phenylthieno[2,3-d]pyrimidin-4-yl)-4-piperidyl]methyl]piperidin-3-ol] yielded an IC50 of 0.5 to 3 µM.

`NC(=O)C1CCCN1CC1CCN(c2ncnc3scc(-c4ccccc4)c23)CC1` (centres unmarked) [Example 247]: the IC50 was < 0.5 µM.

With `Fc1ccc(C2CCN(CC3CCN(c4ncnc5scc(-c6ccccc6)c45)CC3)C2)cc1` (centres unmarked) [Example 70, 4-[4-[[3-(4-fluorophenyl)pyrrolidin-1-yl]methyl]-1-piperidyl]-5-phenyl-thieno[2,3-d]pyrimidine], the 50% inhibitory concentration (IC50) is < 0.5 µM.

Turning to `CN(C)C1CCN(c2nc(N3CCC(O)C3)nc3scc(-c4ccccc4)c23)CC1` (centres unmarked) [Example 188], the IC50 lay within 0.5 to 3 µM.

Consider `CN1CCC(N(C)CC2CCN(c3ncnc4sc(Br)c(-c5ccccc5)c34)CC2)C1` (centres unmarked) [Example 266], for which the IC50 was < 0.5 µM.
